In one data set the test system is Trypanosoma cruzi. The data set can be described thus: Antitrypanosomal activity against Trypanosoma cruzi Y trypomastigotes infected in monkey LLC-MK2 cells assessed as parasite growth inhibition incubated for 24 hrs by resazurin dye based microplate reader assay. The note with it: for pIC50: Trypanosoma cruzi, Y, LLC-MK2, 24 h, read-out: IC50. The format is functional, organism-based.

Data set [1] can be described thus: Cytotoxicity against mouse NCTC clone 929 cells incubated for 48 hrs by MTT spectrophotometric assay. In kind it is toxicity, cell-based. The note with it: NCTC clone 929 (L929) cells.
A short description of data set [2]: Selectivity index, ratio of CC50 for cytotoxicity against mouse NCTC clone 929 cells to IC50 for antitrypanosomal activity against Trypanosoma cruzi Y trypomastigotes infected in monkey LLC-MK2 cells assessed as parasite growth inhibition. The note with it: read-out: Ratio CC50/IC50. In kind it is toxicity, cell-based.

IC50, CC50 and selectivity ratio data for 33 compounds are collected here from ChEMBL document CHEMBL5325404, “Identification of inhibitors as drug candidates against Chagas disease” (Eur J Med Chem, 2023).

pIC50: −log10 of the molar value. Bounds are passed on as bounds.

With `OCCCNc1nc(Nc2ccccc2)c2cnn(-c3ccccc3)c2n1`, in the data set on Trypanosoma cruzi, the pIC50 was 5.15. Further, in data set [1], the 50% cytotoxic concentration (CC50) at 48 h was determined as 85.2 µM. Besides, the selectivity ratio in data set [2] worked out at 12.

As to `Cc1ccc(NC(=O)NC(=O)[C@@H](C)Sc2nncn2Cc2ccco2)c(C)c1`, in the data set with Trypanosoma cruzi, the IC50 result is on record as “Not Active”.

Regarding `Cc1cc(C)c2cc(C(=O)Nc3ccccc3-n3cncn3)[nH]c2c1`, the pIC50 in the data set on Trypanosoma cruzi is 5.05. The midpoint of cytotoxicity in data set [1], the CC50 at 48 h, lay at 80.9 µM. Moreover, the selectivity ratio in data set [2] was 8.9.

As to `Cc1ccc(-c2noc(C(=O)NCCNC(=O)COc3ccc(Cl)c(C)c3)n2)cc1`, in the data set with Trypanosoma cruzi, the IC50 entry is “Not Active”.

Regarding `CC(C)Nc1cc(C(=O)c2cc(F)ccc2O)cn2c(=O)c3ccccc3nc12`, the IC50 entry in the data set with Trypanosoma cruzi is listed as “Not Active”.

In the case of `CCCOCc1ccccc1CNC(=O)Nc1cnc2c(c1)c(C)nn2C`, the pIC50 with Trypanosoma cruzi is 4.16. In addition, half-maximal cytotoxicity in data set [1] (CC50 at 48 h) was put at 66.9 µM. Also, the selectivity ratio in data set [2] was 1.

Consider `Cc1cc(C)c2cc(C(=O)NCc3ccccc3Cn3cncn3)[nH]c2c1`, for which, in the data set on Trypanosoma cruzi, the IC50 entry is recorded as “Not Active”.

In the case of `COc1ccccc1OCC#CCNS(=O)(=O)c1ccc(Cl)c(Cl)c1`, the pIC50 in the data set on Trypanosoma cruzi is 4.49. In data set [1], this compound gave a CC50 at 48 h of 128 µM. In data set [2], the selectivity ratio came to 4.

Consider `Cc1ccc(-n2nnnc2S[C@@H](C)C(=O)NCC(=O)Nc2ccc(F)c(F)c2F)c(C)c1`, for which the pIC50 in the data set on Trypanosoma cruzi was 4.42. The compound also came in with a CC50 at 48 h in data set [1] of 52.8 µM. The selectivity ratio in data set [2] stood at 1.4.

Consider `Cc1nn(C)c2[nH]c(=O)c(/C=C/C(=O)NCCc3ccc(Cl)cc3Cl)c(C)c12`, for which the IC50 entry in the data set on Trypanosoma cruzi is reported as “Not Active”.

In the case of `Cc1cc2nn(CC(=O)Nc3cc(F)cc(F)c3)c(=O)n2c(Nc2ccc(C)c(F)c2)n1`, the IC50 entry in the data set on Trypanosoma cruzi is recorded as “Not Active”.

Regarding `O=C(Nc1ccc(F)cc1F)[C@H](NS(=O)(=O)c1cccc2nsnc12)c1ccccc1`, the pIC50 in the data set with Trypanosoma cruzi was 4.26. Further, in data set [1], the CC50 at 48 h is greater than 200 µM. In addition, the selectivity ratio in data set [2] is greater than 3.6.

On to `Cn1nnc2cc(C(=O)Nc3nccn3Cc3ccccc3Cl)ccc21`, for which the IC50 entry with Trypanosoma cruzi was “Not Active”.

Turning to `COc1ccc(OC)c(Nc2nc(NCCCO)nc3c2cnn3-c2ccccc2)c1`, the pIC50 in the data set on Trypanosoma cruzi was 5.00. For the same compound, the CC50 at 48 h in data set [1] is greater than 200 µM. Further, in data set [2], the selectivity ratio is greater than 19.8.

As to `Cc1ccc(-n2nnnc2S[C@@H](C)C(=O)NC(=O)Nc2ccccc2)cc1`, the IC50 entry in the data set with Trypanosoma cruzi is on record as “Not Active”.

`Cc1ccc(C[C@H](C)NC(=O)Nc2ccc(C)c(-n3cnnn3)c2)s1`: in the data set with Trypanosoma cruzi, the IC50 entry is “Not Active”.

For the compound `Cc1cn([C@@H](C)c2ccccc2)nc1NC(=O)CCc1nc(C(C)C)no1`, in the data set on Trypanosoma cruzi, the IC50 entry was “Not Active”.

In the case of `OCCCNc1nc(Nc2ccc(F)cc2)c2cnn(-c3ccccc3)c2n1`, the pIC50 in the data set on Trypanosoma cruzi was 4.83. Moreover, the CC50 at 48 h in data set [1] was determined as 39.2 µM. Besides, the selectivity ratio in data set [2] worked out at 2.6.

For the compound `Cc1cccc(NC(=O)[C@@H](Cc2ccccc2)NS(=O)(=O)c2cccc3nsnc23)c1`, the pIC50 with Trypanosoma cruzi was 4.64. In addition, the CC50 at 48 h in data set [1] was 79.5 µM. The selectivity ratio in data set [2] was found to be 3.5.

On to `CCOc1ccc(CCNC(=O)C2CCN(c3ncnc4onc(C)c34)CC2)cc1`, for which the IC50 entry in the data set on Trypanosoma cruzi was “Not Active”.

With `Cc1ccc(-n2cnnn2)cc1NC(=O)N[C@H](C)c1cccc(Cl)c1`, the IC50 entry in the data set with Trypanosoma cruzi is recorded as “Not Active”.

For the compound `Cc1ccc(NC(=O)Cn2nc3cc(C)nc(Nc4ccc(F)c(C)c4)n3c2=O)cc1`, the IC50 entry in the data set with Trypanosoma cruzi was “Not Active”.

On to `Cc1cc(C)cc(Nc2nc(C)cc3nn(CC(=O)Nc4ccc(C)c(F)c4)c(=O)n23)c1`, for which the IC50 result in the data set on Trypanosoma cruzi is recorded as “Not Active”.

Turning to `Cc1nn(C)c2[nH]c(=O)c(CCC(=O)NC[C@@H]3CCCc4ccccc43)c(C)c12`, in the data set on Trypanosoma cruzi, the IC50 result is “Not Active”.

Take `Cc1ccc2nc(NC(=O)[C@H]3CCCN3S(=O)(=O)c3cccc4nsnc34)sc2c1`: in the data set with Trypanosoma cruzi, the IC50 entry is listed as “Not Active”.

Turning to `CC(=O)c1cn(CC(=O)NCCCc2nnc3ccccn23)c2ccccc12`, the IC50 entry in the data set on Trypanosoma cruzi was “Not Active”.

`CC[C@]1(c2ccccc2)NC(=O)N(NC(=O)CSc2nc(C)nc3sc(C)c(C)c23)C1=O`: the pIC50 in the data set with Trypanosoma cruzi is 4.87. The CC50 at 48 h in data set [1] was greater than 200 µM. Moreover, in data set [2], the selectivity ratio is greater than 14.7.

As for `O=C(Cn1ccnc1[N+](=O)[O-])NCc1ccccc1` [BENZNIDAZOLE], the pIC50 in the data set on Trypanosoma cruzi is 4.74. For the same compound, the CC50 at 48 h in data set [1] was greater than 200 µM. For the same compound, the selectivity ratio in data set [2] is greater than 10.7.

For `CCN(CCO)c1nc(Nc2cc(OC)ccc2OC)c2cnn(-c3ccccc3)c2n1`, the IC50 entry with Trypanosoma cruzi is on record as “Not Active”.

As to `COc1ccc2nc(NC(=O)CN(C)S(=O)(=O)c3cccc4nsnc34)sc2c1`, the IC50 result in the data set with Trypanosoma cruzi is reported as “Not Active”.

For the compound `COc1ccc(C)cc1NC(=O)Cn1nc2cc(C)nc(Nc3ccc(F)cc3)n2c1=O`, the IC50 entry with Trypanosoma cruzi was “Not Active”.

For `Cc1ccccc1Nc1nc(N(C)CCO)nc2c1cnn2-c1ccccc1`, the pIC50 in the data set on Trypanosoma cruzi is 4.89. Moreover, in data set [1], the CC50 at 48 h was found to be 25 µM. Besides, the selectivity ratio in data set [2] was found to be 2.

Take `CCOc1ccccc1C(=O)NCC(=O)N1CCC[C@@H](c2nnc3n2CCCCC3)C1`: in the data set on Trypanosoma cruzi, the IC50 result is recorded as “Not Active”.
